According to patent US8822517B2, “Arylosulfonamides for the treatment of CNS diseases” (Adamed SP. Z O.O., priority 2010, dated 2014):

Key:
[1] = target: T1, serotonine transporter (SERT) receptor (Homo sapiens, UniProt P31645); test: Binding assay SERT (h), [3H]imipramine, CHO cells; conditions: read-out: SERT [%]
T1 construct: expressed in transfected cells; host or cells: CHO cells
Method in brief: (§1)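 Detection relied on scintillation counting of bound ligand. Compounds at 1×10^−6 M were evaluated against specific binding, i.e. total binding corrected for the nonspecific fraction seen with excess unlabelled ligand.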

dopaminergic D2 receptor = dopaminergic D2 receptor (Homo sapiens, UniProt P14416); test: Binding assay D2S (h), [3H]methyl-spiperone, HEK-293 cells; set-up: expressed in transfected cells; host or cells: HEK-293 cells; conditions: read-out: D2 [%]
Chain of dopaminergic D2 receptor (P14416 1-414 isoform P14416-2): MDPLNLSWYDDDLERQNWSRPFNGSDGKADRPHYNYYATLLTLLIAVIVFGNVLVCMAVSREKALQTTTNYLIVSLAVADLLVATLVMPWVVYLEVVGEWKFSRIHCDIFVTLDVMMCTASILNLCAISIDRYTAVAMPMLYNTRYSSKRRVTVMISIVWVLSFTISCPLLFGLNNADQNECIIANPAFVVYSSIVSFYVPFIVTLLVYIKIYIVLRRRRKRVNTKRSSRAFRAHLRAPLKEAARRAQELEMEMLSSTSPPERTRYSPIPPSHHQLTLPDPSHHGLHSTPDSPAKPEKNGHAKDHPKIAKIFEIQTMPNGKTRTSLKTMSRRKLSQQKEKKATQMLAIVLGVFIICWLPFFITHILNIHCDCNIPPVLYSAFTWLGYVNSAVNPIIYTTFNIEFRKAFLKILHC
Method in brief: as §1

adrenergic α1 receptor = test: Binding assay α1 (non-selective), [3H]prazosin, rat cerebral cortex; conditions: percent inhibition of control specific binding; compounds tested at 1×10^−6 M
Method in brief: as §1

dopaminergic D3 receptor = dopaminergic D3 receptor (Homo sapiens, UniProt P35462); test: Binding assay D3 (h), [3H]methyl-spiperone, CHO cells; set-up: expressed in transfected cells; host or cells: CHO cells; conditions: read-out: D3 [%]
Chain of dopaminergic D3 receptor (P35462 whole entry): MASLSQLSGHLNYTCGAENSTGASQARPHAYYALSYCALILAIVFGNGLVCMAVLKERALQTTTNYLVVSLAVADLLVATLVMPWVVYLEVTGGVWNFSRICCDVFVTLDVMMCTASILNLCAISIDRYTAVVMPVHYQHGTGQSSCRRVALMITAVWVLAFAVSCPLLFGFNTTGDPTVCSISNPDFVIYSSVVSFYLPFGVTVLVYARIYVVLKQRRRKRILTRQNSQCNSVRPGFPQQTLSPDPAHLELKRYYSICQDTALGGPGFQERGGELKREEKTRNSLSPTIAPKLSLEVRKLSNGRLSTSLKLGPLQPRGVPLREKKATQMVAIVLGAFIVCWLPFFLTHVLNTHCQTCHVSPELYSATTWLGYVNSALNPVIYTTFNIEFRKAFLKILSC
Method in brief: as §1

[2] = target: serotoninergic 5-HT6 receptor (Homo sapiens, UniProt P50406); test: Binding assay 5-HT6 (h), [3H]LSD, CHO cells; set-up: expressed in transfected cells; host or cells: CHO cells; conditions: read-out: 5-HT6
Chain of serotoninergic 5-HT6 receptor (P50406 whole entry): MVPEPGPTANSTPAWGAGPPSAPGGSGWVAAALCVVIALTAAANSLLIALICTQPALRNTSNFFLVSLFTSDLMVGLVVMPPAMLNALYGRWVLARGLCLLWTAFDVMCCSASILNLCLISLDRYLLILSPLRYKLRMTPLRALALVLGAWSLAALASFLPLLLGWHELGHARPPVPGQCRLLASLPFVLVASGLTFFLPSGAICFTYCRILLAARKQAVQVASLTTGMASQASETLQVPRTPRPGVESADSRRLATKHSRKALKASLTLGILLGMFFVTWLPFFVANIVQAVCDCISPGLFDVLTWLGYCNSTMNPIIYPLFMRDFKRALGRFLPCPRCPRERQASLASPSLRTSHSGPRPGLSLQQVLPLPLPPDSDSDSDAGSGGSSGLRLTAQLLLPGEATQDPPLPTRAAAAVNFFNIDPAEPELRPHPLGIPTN
Method in brief: as §1

[3] = target: serotoninergic 5-HT2A receptor (Homo sapiens, UniProt P28223); test: Binding assay 5-HT2A (h), [3H]ketanserin, HEK-293 cells; set-up: expressed in transfected cells; host or cells: HEK-293 cells; conditions: read-out: 5-HT2A
Chain of serotoninergic 5-HT2A receptor (P28223 whole entry): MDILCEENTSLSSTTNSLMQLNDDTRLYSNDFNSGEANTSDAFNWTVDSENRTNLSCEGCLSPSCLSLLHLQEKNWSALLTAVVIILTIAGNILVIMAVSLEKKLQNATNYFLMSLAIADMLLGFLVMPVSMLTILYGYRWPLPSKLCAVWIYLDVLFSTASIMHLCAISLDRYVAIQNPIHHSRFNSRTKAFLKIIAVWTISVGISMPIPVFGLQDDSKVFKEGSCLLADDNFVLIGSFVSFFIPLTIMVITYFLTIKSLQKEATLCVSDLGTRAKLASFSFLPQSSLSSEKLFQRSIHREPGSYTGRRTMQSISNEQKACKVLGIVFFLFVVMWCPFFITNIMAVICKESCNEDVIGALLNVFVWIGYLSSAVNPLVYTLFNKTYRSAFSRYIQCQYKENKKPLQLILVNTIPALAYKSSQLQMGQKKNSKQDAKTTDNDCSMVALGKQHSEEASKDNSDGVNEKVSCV
Method in brief: as §1

[4] = target: T2, serotoninergic 5-HT1A receptor (Homo sapiens, UniProt P08908); test: Binding assay 5-HT1A (h), [3H]8-OH-DPAT, HEK-293 cells; set-up: expressed in transfected cells; host or cells: HEK-293 cells; conditions: read-out: 5-HT1A
T2 sequence (P08908 1-422): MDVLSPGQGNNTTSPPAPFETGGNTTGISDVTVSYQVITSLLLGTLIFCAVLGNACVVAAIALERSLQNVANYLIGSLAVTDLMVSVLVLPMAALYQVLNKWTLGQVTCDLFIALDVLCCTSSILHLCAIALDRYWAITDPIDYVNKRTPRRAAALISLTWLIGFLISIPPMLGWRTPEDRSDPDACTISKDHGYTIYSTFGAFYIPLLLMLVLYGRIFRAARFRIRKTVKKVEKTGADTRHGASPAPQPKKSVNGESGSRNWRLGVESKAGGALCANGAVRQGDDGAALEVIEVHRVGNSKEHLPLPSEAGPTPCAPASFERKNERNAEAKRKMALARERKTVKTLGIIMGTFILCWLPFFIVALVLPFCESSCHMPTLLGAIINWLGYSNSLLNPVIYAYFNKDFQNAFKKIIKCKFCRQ
Method in brief: as §1

[5] = target: serotoninergic 5-HT7 receptor (Homo sapiens, UniProt P34969); test: Binding assay 5-HT7 (h), [3H]LSD, CHO cells; set-up: expressed in transfected cells; host or cells: CHO cells; conditions: read-out: 5-HT7
Chain of serotoninergic 5-HT7 receptor (P34969 whole entry): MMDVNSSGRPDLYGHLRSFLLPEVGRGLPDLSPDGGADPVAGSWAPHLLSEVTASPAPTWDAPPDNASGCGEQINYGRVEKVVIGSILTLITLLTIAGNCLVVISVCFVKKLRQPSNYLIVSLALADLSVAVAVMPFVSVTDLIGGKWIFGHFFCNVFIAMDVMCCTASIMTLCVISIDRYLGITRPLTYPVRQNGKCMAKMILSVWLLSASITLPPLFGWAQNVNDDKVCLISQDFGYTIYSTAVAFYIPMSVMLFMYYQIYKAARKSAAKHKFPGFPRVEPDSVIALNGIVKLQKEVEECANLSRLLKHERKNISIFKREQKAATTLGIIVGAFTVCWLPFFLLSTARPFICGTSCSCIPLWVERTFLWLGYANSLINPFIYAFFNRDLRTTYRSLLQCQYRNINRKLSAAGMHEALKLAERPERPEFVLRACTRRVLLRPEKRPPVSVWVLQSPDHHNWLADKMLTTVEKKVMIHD
Method in brief: as §1

T1 sequence (P31645 whole entry): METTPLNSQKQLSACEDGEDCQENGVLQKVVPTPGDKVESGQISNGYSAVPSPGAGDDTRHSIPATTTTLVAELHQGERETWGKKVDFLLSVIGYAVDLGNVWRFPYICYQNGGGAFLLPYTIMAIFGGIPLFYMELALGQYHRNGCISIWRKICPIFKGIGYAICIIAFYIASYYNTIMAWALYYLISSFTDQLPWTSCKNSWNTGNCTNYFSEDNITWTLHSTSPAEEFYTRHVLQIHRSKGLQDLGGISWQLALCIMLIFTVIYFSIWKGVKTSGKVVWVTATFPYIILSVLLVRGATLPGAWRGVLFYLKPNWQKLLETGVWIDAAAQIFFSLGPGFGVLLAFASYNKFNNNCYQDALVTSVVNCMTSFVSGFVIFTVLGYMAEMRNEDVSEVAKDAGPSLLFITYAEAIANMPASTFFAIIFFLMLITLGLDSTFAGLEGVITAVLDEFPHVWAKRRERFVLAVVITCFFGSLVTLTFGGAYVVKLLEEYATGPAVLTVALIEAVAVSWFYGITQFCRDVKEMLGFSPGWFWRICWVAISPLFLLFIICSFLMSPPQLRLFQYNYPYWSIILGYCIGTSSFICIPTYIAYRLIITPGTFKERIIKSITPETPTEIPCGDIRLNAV

| SMILES | inhibition at 1 µM [1] [%] | inhibition at 1 µM (dopaminergic D2 receptor) [%] | α1 [%] (adrenergic α1 receptor) | inhibition at 1 µM (dopaminergic D3 receptor) [%] | inhibition at 1 µM [2] [%] | inhibition at 1 µM [3] [%] | inhibition at 1 µM [4] [%] | inhibition at 1 µM [5] [%] |
| --- | --- | --- | --- | --- | --- | --- | --- | --- |
| O=S(=O)(NCCCCN1CCN(c2nsc3ccccc23)CC1)c1ccc2cn[nH]c2c1 [Compound 244, N-[4-[4-(1,2-Benzothiazol-3-yl)piperazin-1-yl]butyl]-1H-indazole-6-sulphonamide] | 19 | 105 | 98 | 91 | 81 | 96 | 69 | 98 |
| O=S(=O)(NCCCCN1CCN(c2nsc3ccccc23)CC1)c1cnc2ccccn12 [Compound 246, N-[4-[4-(1,2-Benzothiazol-3-yl)piperazin-1-yl]butyl]imidazo[1,2-a]pyridine-3-sulphonamide] | 31 | 98 | 99 | 86 | 49 | 88 | 91 | 86 |
| O=S(=O)(NCCCCN1CCN(c2nsc3ccccc23)CC1)c1c[nH]c2ncccc12 [Compound 247, N-[4-[4-(1,2-Benzothiazol-3-yl)piperazin-1-yl]butyl]-1H-pyrrolo[2,3-b]pyridine-3-sulphonamide] | 14 | 104 | 98 | 83 | 93 | 88 | 78 | 93 |
| O=S(=O)(NCCCN1CCN(c2nsc3ccccc23)CC1)c1cccc(O)c1 [Compound 254, N-[3-[4-(1,2-Benzothiazol-3-yl)piperazin-1-yl]propyl]-3-hydroxybenzenesulphonamide] | 9 | 87 | 96 | 98 | 76 | 90 | 94 | 93 |
| COc1cccc(S(=O)(=O)NCCCN2CCN(c3nsc4ccccc34)CC2)c1 [Compound 255, N-[3-[4-(1,2-Benzothiazol-3-yl)piperazin-1-yl]propyl]-3-methoxybenzenesulphonamide] | 29 | 98 | 92 | 82 | 68 | 84 | 93 | 91 |
| O=S(=O)(NCCCN1CCN(c2nsc3ccccc23)CC1)c1ccc(OC(F)(F)F)cc1 [Compound 259, N-[3-[4-(1,2-Benzothiazol-3-yl)piperazin-1-yl]propyl]-4-(trifluoromethoxy)benzenesulphonamide] | 16 | 93 | 88 | 85 | 74 | 56 | 97 | 96 |
| O=S(=O)(NCCCN1CCN(c2nsc3ccccc23)CC1)c1cc2ccc(Cl)cc2s1 [Compound 264, N-[3-[4-(1,2-Benzothiazol-3-yl)piperazin-1-yl]propyl]-6-chlorobenzothiophene-2-sulphonamide] | -18 | 87 | 53 | 65 | 63 | 105 | 54 | 75 |
| O=S(=O)(NCCCN1CCN(c2nsc3ccccc23)CC1)c1c[nH]c2ncccc12 [Compound 270, N-[3-[4-(1,2-Benzothiazol-3-yl)piperazin-1-yl]propyl]-1H-pyrrolo[2,3-b]pyridine-3-sulphonamide] | 12 | 74 | 88 | 82 | 70 | 89 | 75 | 82 |
| O=S(=O)(NCCCCN1CCN(c2noc3ccccc23)CC1)c1ccc(Cl)cc1 [Compound 273, N-[4-[4-(1,2-Benzoxazol-3-yl)piperazin-1-yl]butyl]-4-chlorobenzenesulphonamide] | 22 | 88 | 101 | 85 | 74 | 95 | 46 | 97 |
| O=S(=O)(NCCCCN1CCN(c2noc3ccccc23)CC1)c1ccc(Br)cc1 [Compound 274, N-[4-[4-(1,2-Benzoxazol-3-yl)piperazin-1-yl]butyl]-4-bromobenzenesulphonamide] | 30 | 96 | 99 | 91 | 81 | 97 | 73 | 83 |
| O=S(=O)(NCCCCN1CCN(c2noc3ccccc23)CC1)c1ccc(F)c(Cl)c1 [Compound 276, N-[4-[4-(1,2-Benzoxazol-3-yl)piperazin-1-yl]butyl]-3-chloro-4-fluorobenzenesulphonamide] | 3 | 95 | 95 | 69 | 78 | 87 | 51 | 87 |
| N#Cc1cccc(S(=O)(=O)NCCCCN2CCN(c3noc4ccccc34)CC2)c1 [Compound 282, N-[4-[4-(1,2-Benzoxazol-3-yl)piperazin-1-yl]butyl]-3-cyanobenzenesulphonamide] | 12 | 97 | 102 | 87 | 64 | 78 | 50 | 98 |
| O=S(=O)(NCCCCN1CCN(c2noc3ccccc23)CC1)c1ccc2c(c1)CCO2 [Compound 289, N-[4-[4-(1,2-Benzoxazol-3-yl)piperazin-1-yl]butyl]-2,3-dihydrobenzofuran-5-sulphonamide] | 9 | 99 | 100 | 79 | 78 | 94 | 68 | 91 |
| O=S(=O)(NCCCCN1CCN(c2noc3ccccc23)CC1)c1ccc2cn[nH]c2c1 [Compound 291, N-[4-[4-(1,2-Benzoxazol-3-yl)piperazin-1-yl]butyl]-1H-indazole-6-sulphonamide] | 8 | 99 | 99 | 85 | 83 | 83 | 38 | 99 |
| O=S(=O)(NCCCCN1CCN(c2noc3ccccc23)CC1)c1cnc2ccccn12 [Compound 293, N-[4-[4-(1,2-Benzoxazol-3-yl)piperazin-1-yl]butyl]imidazo[1,2-a]pyridine-3-sulphonamide] | 3 | 85 | 98 | 65 | 44 | 89 | 57 | 93 |
| O=S(=O)(NCCCCN1CCC(c2noc3cc(F)ccc23)CC1)c1ccc(F)cc1 [Compound 294, 4-Fluoro-N-[4-[4-(6-fluoro-1,2-benzoxazol-3-yl)piperidin-1-yl]butyl]benzenesulphonamide] | -14 | 105 | 101 | 95 | 72 | 95 | 23 | 94 |
| O=S(=O)(NCCCCN1CCC(c2noc3cc(F)ccc23)CC1)c1ccc(Cl)cc1 [Compound 296, 4-Chloro-N-[4-[4-(6-fluoro-1,2-benzoxazol-3-yl)piperidin-1-yl]butyl]benzenesulphonamide] | 49 | 105 | 101 | 100 | 83 | 93 | 34 | 91 |
